Data: patent US11970473B2, “Nootkatone derivatives and methods of using the same” (Arkansas State University—Jonesboro, priority 2021, dated 2024)
Converted amounts (≈) assume the structure as drawn. Like-named read-outs stand apart in the source and are kept apart here.

What was measured:
Assay type in all cases: cell-based
[1] = test system: B. subtilis ATCC 6623 (Bs); assay: Minimal inhibitory concentration (MIC) assay; settings: Bacillus subtilis
Method: (§1) Minimal inhibitory concentration (MIC) assay The standard microdilution method recommended by the Clinical and Laboratory Standards Institute (CLSI) was used to determine the MIC of the antibiotics. The starting concentration of compounds was 50 μg/ml and 2-fold dilution was done down the 96 honeycomb well plate column. The MIC assay was conducted in triplicates.

[2] = test system: Enterococcus faecalis ATCC 29212 (Es12); assay: Minimal inhibitory concentration (MIC) assay
Method: as §1

[3] = test system: Enterococcus faecium ATCC 700221 (Em21); assay: Minimal inhibitory concentration (MIC) assay; settings: Enterococcus faecium
Method: as §1

[4] = test system: S. aureus ATCC 25923 (Sa23); assay: Minimal inhibitory concentration (MIC) assay; settings: Staphylococcus aureus
Method: as §1

[5] = test system: S. aureus ATCC 33591 (Sa91); assay: Minimal inhibitory concentration (MIC) assay; settings: Staphylococcus aureus
Method: as §1

[6] = test system: S. aureus ATCC 33592 (Sa92); assay: Minimal inhibitory concentration (MIC) assay; settings: Staphylococcus aureus
Method: as §1

[7] = test system: S. aureus ATCC 700699 (Sa99); assay: Minimal inhibitory concentration (MIC) assay; settings: Staphylococcus aureus
Method: as §1

[8] = test system: S. aureus BAA-2312 (Sa12); assay: Minimal inhibitory concentration (MIC) assay; settings: Staphylococcus aureus
Method: as §1

[9] = test system: S. epidermidis 700296 (Se); assay: Minimal inhibitory concentration (MIC) assay; settings: Staphylococcus epidermidis, read-out: Antimicrobial activity (MIC) Se
Method: as §1

S. aureus strains = assay: MIC, summary over S. aureus strains; settings: two MRSA strains
Method: as §1

[10] = ATCC6623, B. subtilis ATCC 6623, read-out: Antimicrobial activity (MIC) Bs
[11] = ATCC29212, Enterococcus faecalis ATCC 29212, read-out: Antimicrobial activity (MIC) Es12
[12] = ATCC700221, Enterococcus faecium ATCC 700221, read-out: Antimicrobial activity (MIC) Em21
[13] = ATCC25923, S. aureus ATCC 25923, antibiotic susceptible strain, read-out: Antimicrobial activity (MIC) Sa23
[14] = ATCC33591, S. aureus ATCC 33591, antibiotic-resistant strain, read-out: Antimicrobial activity (MIC) Sa91
[15] = ATCC33592, S. aureus ATCC 33592, antibiotic-resistant strain, read-out: Antimicrobial activity (MIC) Sa92
[16] = ATCC700699, S. aureus ATCC 700699, antibiotic-resistant strain, read-out: Antimicrobial activity (MIC) Sa99
[17] = BAA2312, S. aureus BAA-2312, antibiotic-resistant strain, read-out: Antimicrobial activity (MIC) Sa12

| SMILES | MIC ([1]; ATCC6623, read-out: Antimicrobial activity (MIC) Bs) | MIC ([2]; Enterococcus faecalis, ATCC29212, read-out: Antimicrobial activity (MIC) Es12) | MIC ([3]; ATCC700221, read-out: Antimicrobial activity (MIC) Em21) | MIC ([4]; ATCC25923, read-out: Antimicrobial activity (MIC) Sa23) | MIC ([5]; ATCC33591, read-out: Antimicrobial activity (MIC) Sa91) | MIC ([6]; ATCC33592, read-out: Antimicrobial activity (MIC) Sa92) | MIC ([7]; ATCC700699, read-out: Antimicrobial activity (MIC) Sa99) | MIC ([8]; BAA2312, read-out: Antimicrobial activity (MIC) Sa12) | MIC [9] | MIC [1, 10] | MIC [2, 11] | MIC [3, 12] | MIC [4, 13] | MIC [5, 14] | MIC [6, 15] | MIC [7, 16] | MIC [8, 17] | MIC ([9]; S. epidermidis 700296) | activity against MRSA strains (S. aureus strains) |
| --- | --- | --- | --- | --- | --- | --- | --- | --- | --- | --- | --- | --- | --- | --- | --- | --- | --- | --- | --- |
| C=C(C)[C@@H]1CC=C2c3sc(Cc4ccccc4C)nc3C[C@@H](C)[C@]2(C)C1 [Compound 4, (5R,5aS,7R)-7-isopropenyl-5,5a-dimethyl-2-(o-tolylmethyl)-5,6,7,8-tetrahydro-4H-benzo[g][1,3]benzothiazole] | > 100 µg/mL | > 100 µg/mL | > 100 µg/mL | > 100 µg/mL | > 100 µg/mL | > 100 µg/mL | > 100 µg/mL | > 100 µg/mL | > 100 µg/mL | – | – | – | – | – | – | – | – | – | – |
| C=C(C)[C@@H]1CC=C2c3sc(C4CCOCC4)nc3C[C@@H](C)[C@]2(C)C1 [Compound 5, (5R,5aS,7R)-7-isopropenyl-5,5a-dimethyl-2-tetrahydropyran-4-yl-5,6,7,8-tetrahydro-4H-benzo[g][1,3]benzothiazole] | – | – | – | – | – | – | – | – | – | 50 µg/mL (≈ 146 µM) | > 100 µg/mL | > 100 µg/mL | 100 µg/mL (≈ 291 µM) | > 100 µg/mL | 100 µg/mL (≈ 291 µM) | > 100 µg/mL | 100 µg/mL (≈ 291 µM) | > 100 µg/mL | – |
| C=C(C)[C@@H]1CC=C2c3sc(-c4ccc(OC)cc4)nc3C[C@@H](C)[C@]2(C)C1 [Compound 10, (5R,5aS,7R)-7-isopropenyl-2-(4-methoxyphenyl)-5,5a-dimethyl-5,6,7,8-tetrahydro-4H-benzo[g][1,3]benzothiazole] | – | – | – | – | – | – | – | – | – | 50 µg/mL (≈ 137 µM) | > 100 µg/mL | > 100 µg/mL | 50 µg/mL (≈ 137 µM) | 100 µg/mL (≈ 274 µM) | > 100 µg/mL | > 100 µg/mL | 100 µg/mL (≈ 274 µM) | > 100 µg/mL | – |
| C=C(C)[C@@H]1CC=C2c3sc(Nc4ccc(F)cc4F)nc3C[C@@H](C)[C@]2(C)C1 [Compound 25, (5R,5aS,7R)—N-(2,4-difluorophenyl)-7-isopropenyl-5,5a-dimethyl-5,6,7,8-tetrahydro-4H-benzo[g][1,3]benzothiazol-2-amine] | – | – | – | – | – | – | – | – | – | > 100 µg/mL | > 100 µg/mL | > 100 µg/mL | 100 µg/mL (≈ 259 µM) | > 100 µg/mL | > 100 µg/mL | > 100 µg/mL | > 100 µg/mL | > 100 µg/mL | – |
| C=C(C)[C@@H]1CC=C2c3sc(-c4cccc(OCC)c4)nc3C[C@@H](C)[C@]2(C)C1 [Compound 11, (5R,5aS,7R)-2-(3-ethoxyphenyl)-7-isopropenyl-5,5a-dimethyl-5,6,7,8-tetrahydro-4H-benzo[g][1,3]benzothiazole] | – | – | – | – | – | – | – | – | – | > 100 µg/mL | > 100 µg/mL | > 100 µg/mL | 50 µg/mL (≈ 132 µM) | > 100 µg/mL | > 100 µg/mL | > 100 µg/mL | > 100 µg/mL | > 100 µg/mL | – |
| C=C(C)[C@@H]1CC=C2c3sc(-c4ccc5c(c4)OCO5)nc3C[C@@H](C)[C@]2(C)C1 [Compound 17, (5R,5aS,7R)-2-(1,3-benzodioxol-5-yl)-7-isopropenyl-5,5a-dimethyl-5,6,7,8-tetrahydro-4H-benzo[g][1,3]benzothiazole] | – | – | – | – | – | – | – | – | – | 12.5 µg/mL (≈ 32.9 µM) | > 100 µg/mL | > 100 µg/mL | > 100 µg/mL | 25 µg/mL (≈ 65.9 µM) | > 100 µg/mL | > 100 µg/mL | > 100 µg/mL | 25 µg/mL (≈ 65.9 µM) | moderate activity |
